Measurements published in publication PMC11187126, “Structure and dynamics of the pyroglutamylated RF-amide peptide QRFP receptor GPR103” (Nature Communications, 2024).
Where two headings read alike, the source gives them in different places. No end group written: not given here.

Target: T1, GPR103 W286^6.48A (Homo sapiens, UniProt Q96P65, W286A)
T1 construct: we used human full-length QRFPR-encoding plasmids; expressed in transfected cells; host or cells: HEK293 cells (HEK293A in the flow cytometry section), pCAGGS vector
T1 sequence (Q96P65 1-431 W286A): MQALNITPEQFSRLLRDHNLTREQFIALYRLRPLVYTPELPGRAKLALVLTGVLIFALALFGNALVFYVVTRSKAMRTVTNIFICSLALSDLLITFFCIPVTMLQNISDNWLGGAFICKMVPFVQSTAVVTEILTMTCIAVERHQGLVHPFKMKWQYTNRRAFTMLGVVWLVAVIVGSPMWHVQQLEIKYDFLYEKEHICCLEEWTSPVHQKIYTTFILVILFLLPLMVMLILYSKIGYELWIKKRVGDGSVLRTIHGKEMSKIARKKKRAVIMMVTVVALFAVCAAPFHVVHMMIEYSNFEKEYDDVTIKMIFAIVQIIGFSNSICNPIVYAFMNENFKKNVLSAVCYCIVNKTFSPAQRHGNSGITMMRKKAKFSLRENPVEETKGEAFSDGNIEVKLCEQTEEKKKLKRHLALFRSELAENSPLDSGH
Assay: TGFα shedding assay; Exp. level WT (1:20)
Assay type: cell-based
Protocol: For the TGFα shedding assay and the flow cytometry analysis, we used human full-length QRFPR-encoding plasmids. Specifically, GPR103 was N-terminally modified with an HA signal sequence followed by a FLAG epitope and then a flexible linker ([…]; the FLAG epitope is underlined) and inserted into the pCAGGS vector. Plasmid encoding GPR103 mutants were generated using Quickchange Site-Directed Mutagensis kit (Agilent).
The TGFα shedding assay was performed as described previously with minor modifications. Plasmid transfection was performed in a 6-well plate with a mixture of 500 ng (per well in a 6-well plate) AP-TGFα-encoding plasmid and 200 ng GPR103-encoding plasmid. After 1-day culture, the transfected cells were harvested by trypsinization, pelleted by centrifugation at 190 × g for 5 min, and washed once with 5 mM HEPES (pH 7.4)-containing Hank’s Balanced Salt Solution (HBSS). After centrifugation, the cells were resuspended in 8 mL of the HEPES-containing HBSS. The cell suspension was seeded in a 96-well culture plate (cell plate) at a volume of 90 μL (per well hereafter) and incubated in a 37 °C incubator with 5% CO2 for 30 min. […] After spinning the cell plates at 190 × g for 2 min, 80 μL of conditioned media was transferred to an empty 96-well plate (conditioned media (CM) plate). Then, 80 μL of AP reaction solution (10 mM p-nitrophenylphosphate (p-NPP), 120 mM Tris-HCl (pH 9.5), 40 mM NaCl, and 10 mM MgCl2) was dispensed into the cell plates and the CM plates. Absorbance at 405 nm of the plates was measured using a microplate reader (SpectraMax 340 PC384, Molecular Devices) before and after 1-h incubation at room temperature. Ligand-induced AP-TGFα release was calculated by subtracting spontaneous AP-TGFα release signal from ligand-induced AP-TGFα release signal. The AP-TGFα release signals were fitted to a four-parameter sigmoidal concentration–response curve, using the Prism 10 software (GraphPad Prism). For each replicate experiment, the pEC50 parameter (negative logarithmic values of EC50 values) of the individual GPR103 mutants were normalized to that of the wild-type GPR103 performed in parallel, and resulting ∆pEC50 values were used to denote ligand response activity of the mutants. […]
Exp. le vel: WT (1:5 0)Exp. le vel: WT (1:5 0)Exp. le vel: WT (1:5 0)Exp. le vel: WT (1:2 0)Exp. le vel: WT (1:2 0)Exp. le vel: WT (1:1 0) […]
L1 4N - t e r mA F2 5N - t e r mA I 2 6N - t e r mA Y 2 9N - t e r mA C 9 82 .5 7A T10 22 .6 1A Exp . l eve l: WT (1 :5)Exp . l evel : >WT (1 :1)Exp. le vel: WT (1:2 0)Exp. le vel: WT (1:2 0)Exp. le vel: WT (1:5 0)Exp . l eve l: WT (1 :1) […]
Exp. le vel: WT (1:1 0)Exp. le vel: WT (1:2 0) C 1 1 83 .2 5AExp. le vel: WT (1:5 0)Exp. le vel: WT (1:5 0)Exp. le vel: WT (1:2 0)Exp . l eve l: WT (1 :5) […]
Exp. le vel: WT (1:5 0)Exp. le vel: WT (1:1 0)Exp. le vel: WT (1:5 0) E203ECL2AExp . l evel : >WT (1 :1)Exp. le vel: WT (1:5 0)Exp. le vel: WT (1:5 0) […]
Exp . l eve l: WT (1 :1) F28Exp. le vel: WT (1:5 0) C 2 8 56 .4 7AExp. le vel: WT (1:2 0) WExp. le vel: WT (1:2 0) F28Exp. le vel: WT (1:5 0)Exp . l evel : >WT (1 :1) […]
Exp. le vel: WT (1:5 0)Exp. le vel: WT (1:5 0) C 3 2 77 .4 8AExp . l eve l: WT (1 :5)Exp . l evel : >WT (1 :1)Exp . l evel : >WT (1 :1) […]
Suppl eme nt ary Figure 1 | Mutational analysis of GPR103. […]
mutants. Data are presented as mean values ± SEM, normally n=3-5; dots), each performed in triplicate. b-d Cell-surface expression (b) and QRFP26-in-duced activation of GPR103 (c, d) were analyzed by the flow cytometry and the TGFα shedding assay, respectively. From the concentration–response curves (a), Emax (c) and ΔpEC50 (d) values relative to the wild type were calculated. Colors in the mutant bars indicate an expression level matching to that of titrated wild type. Statistical analyses were performed using the ordinary one-way ANOVA followed by Dunnett tests with the expression-matched […]

TSGPLGNLAEELNGYSRKKGGFSFRF-NH2 [QRFP26]
Emax (Exp. #1): 72.87 % WT
Emax (Exp. #2): 70.40 % WT
Emax (Exp. #3): 78.23 % WT
Emax (mean, read-out: Emax): 73.8%
EC50 (n = 3): 1120 nM
Emax (n = 3, read-out: Emax): 75.7 ± 1.9%
